Data: article PMC11241267, “Prokaryotic Expression and Functional Verification of Antimicrobial Peptide LRGG” (International Journal of Molecular Sciences, 2024)
Where no end group is shown, it is not given here.

Tests used:
[1] = test system: Eschericha coli ATCC25922; assay: Plasma membrane potential (diSC3-5); type: cell-based; settings: 1–8 MIC, 0–1500 s, diSC3-5 0.4 μM
Method: To determine whether the expressed antimicrobial peptide LRGG can break bacterial cytoplasmic membranes, diSC3-5 was used as a fluorescent dye to monitor changes in membrane potential. A bacterial suspension was prepared and adjusted to an ABS O.D. of 600 = 0.5. Next, the same volume of bacterial suspension and varying concentrations of expressed antimicrobial peptide LRGG (1–8 MIC) were added to black 96-well plates. A control group was established using PBS, and diSC3-5 dye was added to a final concentration of 0.4 μM and incubated at room temperature in the dark for one hour. Changes in […] between 0 and 1500 s were measured using a fluorescence microplate reader at excitation (622 nm) and emission (670 nm) wavelengths.

sheep red blood cells = type: cell-based; settings: red cells of sheep
Method: To obtain a suspension containing 2% red blood cells, 15 mL of sheep blood was collected in a tube containing 0.2% sodium heparin anticoagulant and centrifuged at 1000 rpm for 10 min. After discarding the supernatant, the red blood cell pellet was collected, washed twice with sterile phosphate buffered saline (PBS), and resuspended in PBS. […] After the erythrocyte suspension was incubated with the antimicrobial peptide LRGG for one hour at 37 °C, the mixture from each well of the 96-well plate was aspirated and centrifuged at 1000× g for 10 min. The absorbance of the supernatant was then measured at 570 nm, with three repeats and averaging. Finally, the hemolytic index was calculated as follows: Hemolytic index (%) = (O.D. peptide − O.D. PBS)/(O.D. TritonX − 100 − O.D. PBS) × 100%.

[2] = test system: Eschericha coli ATCC25922; assay: Salt ion stability (MIC in salt solutions); type: cell-based; parameters: unit not given here; settings: triplicate; for MIC value with MgCl2: 1 mM MgCl2; for MIC value with CaCl2: 2.5 mM CaCl2; for MIC value with KCl: 4.5 mM KCl; for MIC value with NH4Cl: 6 mM NH4Cl; for MIC value with NaCl: 150 mM NaCl; for MIC value, Control: untreated peptide, Table 4 control
Method: (§1) The strains kept at −80 °C were reactivated, plated, and incubated overnight at 37 °C. Single colonies were picked, inoculated into 5 mL of MH medium, and cultured until they reached OD600 = 0.5. The bacterial suspensions were then diluted to 1 × 10^5 CFU/mL, and 50 μL was added to wells 1–11. Then, 50 μL and 100 μL of deionized water were added to wells […], respectively, to provide a positive and a negative control. The concentration of peptide present in the first non-turbid well in which bacterial growth was inhibited was taken as the minimal inhibitory concentration (MIC). This experiment was repeated three times.
(§2) The efficacy of the chemically synthesized and in vivo-expressed LRGG peptide were tested for their efficacy against Eschericha coli ATCC 25922 under various conditions, such as heat and different pH conditions, before determining their MIC in triplicate. In one case, the peptides were placed in ice-cold water at 0 °C and heated to 37 °C and 100 °C for 30 min each, and their efficacy was compared to that of an untreated control group. This process was repeated three times. In another case, the peptides were exposed for one hour to pH values of 4, 6, 8, and 10, and their activity was compared to that of an untreated control group. In another set of experiments, the peptides were mixed and incubated with 1 mg/mL of four different proteases. After inactivation of the enzymes, the peptides were tested for their efficacy against Eschericha coli ATCC 25922. The peptides were also tested after mixing with various salt solutions and concentrations of fetal bovine serum at concentrations ranging from 5% to 50%. In all cases, the MIC were determined in triplicate using untreated antimicrobial peptides as controls.

[3] = test system: Eschericha coli ATCC25922; assay: Serum stability (MIC at different serum concentrations); type: cell-based; settings: triplicate; for MIC value in 5% serum: fetal bovine serum 5%; for MIC value in 10% serum: fetal bovine serum 10%; for MIC value in 20% serum: fetal bovine serum 20%; for MIC value in 40% serum: fetal bovine serum 40%; for MIC value in 50% serum: fetal bovine serum 50%; for MIC value, Control: untreated peptide, Table 5 control
Method: as §1, §2

[4] = test system: Eschericha coli ATCC25922; assay: Protease stability (MIC after protease treatment); type: cell-based; parameters: MIC value, Control: unit not given beside the values; settings: triplicate; for MIC value after Papain: peptide incubated with 1 mg/mL papain; for MIC value after Papain / MIC value after Pepsin / MIC value after Protease K / MIC value after Trypsin: enzyme inactivated before MIC; for MIC value after Pepsin: peptide incubated with 1 mg/mL pepsin; for MIC value after Protease K: peptide incubated with 1 mg/mL protease K; for MIC value after Trypsin: peptide incubated with 1 mg/mL trypsin; for MIC value, Control: untreated peptide, Table 3 control
Method: as §1, §2

[5] = test system: Eschericha coli ATCC25922; assay: Temperature and pH stability (MIC after treatment); type: cell-based; parameters: MIC value, Control (pH 7) / MIC value after 0 °C / MIC value after 37 °C / MIC value after 100 °C / MIC value after pH 4 / MIC value after pH 6 / MIC value after pH 8 / MIC value after pH 10: unit not given beside the values; settings: for MIC value after pH 4: peptide exposed for one hour to pH 4; for MIC value after pH 4 / MIC value after pH 6 / MIC value after pH 8 / MIC value after pH 10 / MIC value after 37 °C / MIC value after 100 °C / MIC value after 0 °C / MIC value, Control (pH 7): triplicate; for MIC value after pH 6: peptide exposed for one hour to pH 6; for MIC value after pH 8: peptide exposed for one hour to pH 8; for MIC value after pH 10: peptide exposed for one hour to pH 10; for MIC value after 37 °C: peptide heated to 37 °C for 30 min before MIC; for MIC value after 100 °C: peptide heated to 100 °C for 30 min before MIC; for MIC value after 0 °C: peptide in ice-cold water at 0 °C for 30 min before MIC; for MIC value, Control (pH 7): untreated peptide, Table 2 control; for increase of MIC value at 100 °C: versus untreated control
Method: as §1
as §2, with “In another case, the peptides were exposed for one hour to pH values of 4, 6, 8, and 10, and their activity was compared to that of an untreated control group.” left out

[6] = test system: AB-strain zebrafish embryos; assay: Embryotoxicity in zebrafish; type: in vivo; settings: embryos at 28 °C for approximately 2–3 days, light microscope; for zebrafish morphology (embryotoxicity): 1 × MIC
Method: A sodium dehydroacetate solution of 200 μg/mL served as the positive control, while the negative control group contained only culture medium. The embryos were cultured in a constant temperature incubator at 28 °C for approximately 2–3 days, and their morphology after fertilization was observed using a light microscope.

Compound | MIC value with MgCl2 [2] | MIC value with CaCl2 [2] | MIC value with KCl [2] | MIC value with NH4Cl [2] | MIC value with NaCl [2] | MIC value, Control [2] | MIC value in 5% serum [3] | MIC value in 10% serum [3] | MIC value in 20% serum [3] | MIC value in 40% serum [3] | MIC value in 50% serum [3] | MIC value, Control [3] | MIC value after Papain [4] | MIC value after Pepsin [4] | MIC value after Protease K [4] | MIC value after Trypsin [4] | MIC value, Control [4] | MIC value after pH 4 [5] | MIC value after pH 6 [5] | MIC value after pH 8 [5] | also measured
GLLRLLRRGGRRLLRLL [Expressed LRGG] | 8 | 4 | 8 | 4 | 8 | 4 | 2 | 4 | 32 | 32 | 32 | 2 | >64 | >128 | >64 | >128 | 4 | 2 | 4 | 2 | diSC3-5 fluorescence value (cytoplasmic membrane potential) [1]: gradually increased; hemolytic index (sheep red blood cells): less than 10%; MIC value after pH 10 [5]: 16; MIC value after 37 °C [5]: 4; MIC value after 100 °C [5]: 8; MIC value after 0 °C [5]: 2; MIC value, Control (pH 7) [5]: 2; increase of MIC value at 100 °C [5]: four-fold; zebrafish morphology (embryotoxicity) [6]: did not change the morphology of the zebrafish
CC(=O)c1c([O-])cc(C)oc1=O.[Na+] [sodium dehydroacetate, reference compound] |  |  |  |  |  |  |  |  |  |  |  |  |  |  |  |  |  |  |  |  | zebrafish morphology (embryotoxicity), positive control ([6]; 200 μg/mL): significant hemorrhage and severe bending of the fish
H-LLRLLRRGGRRLLRLL-NH2 [Chem. Syn. LRGG] | 4 | 4 | 2 | 2 | 8 | 2 | 2 | 2 | 8 | 16 | 16 | 2 | >64 | >128 | >64 | >128 | 2 | 2 | 2 | 4 | MIC value after pH 10 [5]: 4; MIC value after 37 °C [5]: 2; MIC value after 100 °C [5]: 8; MIC value after 0 °C [5]: 2; MIC value, Control (pH 7) [5]: 2; increase of MIC value at 100 °C [5]: four-fold; zebrafish morphology (embryotoxicity) [6]: did not change the morphology of the zebrafish
